The values below come from ChEMBL document CHEMBL1159230, “Anti-AIDS agents, 18. Sodium and potassium salts of caffeic acid tetramers from Arnebia euchroma as anti-HIV agents” (J Nat Prod, 1995).

Molecules are shown by their SMILES. ≈ marks a conversion by molar mass, not a printed value.

Data set [1] can be described thus: Therapeutic index, ratio of IC50 for human H9 cells to EC50 for HIV1 3B. The conditions noted are these: for Ratio IC50/EC50: h9; for selectivity ratio: H9 cells, read-out: Ratio IC50/EC50. In kind it is cell-based.
Data set [2] relates to H9. The data set is described as follows: Cytotoxicity against human H9 cells. In kind it is cell-based.
The subject of data set [3] is Human immunodeficiency virus 1. Kind of data set: Antiviral activity against HIV1 3B infected in human H9 cells after 4 days by p24 antigen ELISA assay. In kind it is functional, organism-based. As to conditions: Human immunodeficiency virus 1, 3B, H9, 96 h.

For `O=C(O[C@H](Cc1ccc(O)c(O)c1)C(=O)O)C1=Cc2cc(O)c(O)cc2[C@H](c2ccc(O)c(O)c2)[C@H]1C(=O)O[C@H](Cc1ccc(O)c(O)c1)C(=O)O`, in data set [1], the “Ratio IC50/EC50” value turned out to be 3.5. Also, in data set [2], the IC50 worked out at 45 µg/mL (≈ 62.6 µM). Moreover, in data set [3], a half-maximal effect (EC50) was put at 13 µg/mL (≈ 18.1 µM).
The like results for `O=C(O[C@H](Cc1ccc(O)c(O)c1)C(=O)[O-])C1=Cc2cc(O)c(O)cc2[C@@H](c2ccc(O)c(O)c2)C1C(=O)O[C@H](Cc1ccc(O)c(O)c1)C(=O)[O-].[K+].[K+]` (stereo partly drawn) were, in that order, 3.1, 50 µg/mL and 16 µg/mL.
Turning to `O=C(O[C@H](Cc1ccc(O)c(O)c1)C(=O)[O-])C1=Cc2cc(O)c(O[C@@H]3O[C@H](CO)[C@@H](O)[C@H](O)[C@H]3O)cc2[C@@H](c2ccc(O)c(O)c2)C1C(=O)O[C@H](Cc1ccc(O)c(O)c1)C(=O)[O-].[K+].[Na+]` (stereo partly drawn), in data set [1], the selectivity ratio came to 2. In addition, in data set [2], 60 µg/mL corresponded to half-maximal inhibition (IC50). Further, in data set [3], the EC50 came out at 30 µg/mL.
As for `O=C(O[C@H](Cc1ccc(O)c(O)c1)C(=O)[O-])C1=Cc2cc(O)c(O)cc2[C@@H](c2ccc(O)c(O)c2)C1C(=O)O[C@H](Cc1ccc(O)c(O)c1)C(=O)[O-].[Na+].[Na+]` (stereo partly drawn), in data set [1], the “Ratio IC50/EC50” value is recorded as 19.6. This molecule yielded an IC50 in data set [2] of 55 µg/mL. In data set [3], this molecule yielded a half-maximal effective concentration (EC50) of 2.8 µg/mL.
On to `O=C(O[C@H](Cc1ccc(O)c(O)c1)C(=O)[O-])C1=Cc2cc(O)c(O)cc2[C@H](c2ccc(O)c(O)c2)[C@H]1C(=O)O[C@H](Cc1ccc(O)c(O)c1)C(=O)O.[K+]`, for which, in data set [1], the “Ratio IC50/EC50” value is recorded as 33.3. Also, in data set [2], inhibition was half-maximal at 50 µg/mL (IC50). The molecule also gave an EC50 in data set [3] of 1.5 µg/mL.
The like results for `O=C(O[C@H](Cc1ccc(O)c(O)c1)C(=O)O)C1=Cc2cc(O)c(O)cc2[C@@H](c2ccc(O)c(O)c2)C1C(=O)O[C@H](Cc1ccc(O)c(O)c1)C(=O)O` (stereo partly drawn) were, in that order, 3.3, 50 µg/mL (≈ 69.6 µM) and 15 µg/mL (≈ 20.9 µM).
As for `O=C(O[C@H](Cc1ccc(O)c(O)c1)C(=O)[O-])C1=Cc2cc(O)c(O)cc2[C@@H](c2ccc(O)c(O)c2)C1C(=O)O[C@H](Cc1ccc(O)c(O)c1)C(=O)O.[K+]` (stereo partly drawn), the “Ratio IC50/EC50” value in data set [1] is on record as 12.5. The IC50 in data set [2] came out at 50 µg/mL. In addition, in data set [3], the response was half-maximal at 4 µg/mL (EC50).
Turning to `O=c1ccn([C@@H]2O[C@H](CO)[C@@H](O)[C@H]2O)c(=O)[nH]1` [URIDINE], the selectivity ratio in data set [1] is over 10. The molecule also yielded an EC50 in data set [3] of 10 µg/mL (≈ 40.9 µM).
